# Biological target: T1, human PR (progesterone receptor) (Homo sapiens, UniProt P06401)
# T1 construct: expressed in transfected cells; host or cells: HEK293 (lysate, 293-PR)
# T1 sequence (P06401 1-933): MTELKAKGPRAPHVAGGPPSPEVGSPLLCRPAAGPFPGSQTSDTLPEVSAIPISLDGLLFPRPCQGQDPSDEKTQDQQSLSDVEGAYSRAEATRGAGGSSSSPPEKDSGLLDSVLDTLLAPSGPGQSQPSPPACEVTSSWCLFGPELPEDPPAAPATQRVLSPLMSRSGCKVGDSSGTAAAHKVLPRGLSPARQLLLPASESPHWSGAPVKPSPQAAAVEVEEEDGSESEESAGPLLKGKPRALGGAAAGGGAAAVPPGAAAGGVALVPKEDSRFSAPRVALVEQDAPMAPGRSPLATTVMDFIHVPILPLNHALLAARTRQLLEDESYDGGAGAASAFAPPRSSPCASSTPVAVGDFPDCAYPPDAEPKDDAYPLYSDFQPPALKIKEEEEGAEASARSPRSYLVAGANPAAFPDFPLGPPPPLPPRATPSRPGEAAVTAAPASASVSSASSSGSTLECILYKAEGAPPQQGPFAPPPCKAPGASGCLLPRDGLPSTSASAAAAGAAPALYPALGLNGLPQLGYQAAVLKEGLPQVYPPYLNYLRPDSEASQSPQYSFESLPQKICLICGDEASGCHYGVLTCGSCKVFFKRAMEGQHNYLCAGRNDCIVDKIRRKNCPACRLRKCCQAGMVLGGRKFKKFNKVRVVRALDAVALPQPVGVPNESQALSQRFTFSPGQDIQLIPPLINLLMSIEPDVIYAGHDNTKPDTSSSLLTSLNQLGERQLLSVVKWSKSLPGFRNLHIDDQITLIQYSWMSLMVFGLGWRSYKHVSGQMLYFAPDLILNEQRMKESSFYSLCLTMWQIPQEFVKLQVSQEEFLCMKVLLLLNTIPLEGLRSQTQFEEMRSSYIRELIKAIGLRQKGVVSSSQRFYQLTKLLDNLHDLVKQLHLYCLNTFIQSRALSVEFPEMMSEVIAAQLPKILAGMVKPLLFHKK
# Assay: Steroid hormone nuclear receptor binding assay, PR
# Details: HEK293 lysate overexpressing human PR, [3H]-methyltrienolone
# Procedure: Cell lysates from human embryonic kidney HEK293 cells overexpressing human MR (mineralocorticoid receptor), GR (glucocorticoid receptor), AR (androgen receptor), or PR (progesterone receptor) are used for receptor-ligand competition binding assays to determine Ki values. Typical procedures are provided below
# Briefly, steroid receptor competition binding assays are run in a buffer containing 20 mM HEPES buffer (pH=7.6), 0.2 mM EDTA, 75 mM NaCl, 1.5 mM MgCl2, 20% glycerol, 20 mM sodium molybdate, 0.2 mM DTT (dithiothreitol), 20 μg/mL aprotinin and 20 μg/mL leupeptin (assay buffer). Typically, steroid receptor binding assays include radio-labeled ligands, such as 0.25 nM [^3H]-aldosterone for MR binding, 0.3 nM [^3H]-dexamethasone for GR binding, 0.36 nM [^3H]-methyltrienolone for AR binding, and 0.29 nM [^3H]-methyltrienolone for PR binding, and either 20 μg 293-MR lysate, 20 μg 293-GR lysate, 22 μg 293-AR lysate, or 40 μg 293-PR lysate per well. Assays are typically run in 96-well format. Competing test compounds are added at various concentrations ranging from about 0.01 nM to 10 μM. Non-specific binding is determined in the presence of 500 nM aldosterone for MR binding, 500 nM dexamethasone for GR binding, or 500 nM methyltrienolone for AR and PR binding. […] After an incubation of 2 hours, plates are read in a Wallac Microbeta counter. […]
smiles,measurement,value
"CC(C)OC(=O)N[C@H]1Cc2c(n(C[C@H]3OCC[C@@H]3O)c3ccc(C#N)cc23)C1 [compound of Formula (I), [(S)-7-Cyano-4-((2R,3S)-3-hydroxytetrahydrofuran-2-ylmethyl)-1,2,3,4-tetrahydrocyclopenta[b]indol-2-yl]-carbamic acid isopropyl ester]",Ki,> 4 µM

# Source: US8183388B2, “Androgen receptor modulator and uses thereof” (Eli Lilly and Company, priority 2009, dated 2012)
